Bounds are passed on as bounds.

In one series the test system is MDA-MB-231. Kind of series: Antiproliferative activity against human MDA-MB-231 cells. The class given is functional.
The nature of series [1]: Antiproliferative activity against human OVCAR3 cells. The class given is functional. The conditions noted are these: OVCAR-3.
Series [2] can be described thus: Antiproliferative activity against human HCT116 cells. It counts as functional. The note with it: HCT-116.
The target in series [3] is T1, Dual specificity protein kinase TTK (Homo sapiens, UniProt P33981).
T1 sequence (P33981 whole entry): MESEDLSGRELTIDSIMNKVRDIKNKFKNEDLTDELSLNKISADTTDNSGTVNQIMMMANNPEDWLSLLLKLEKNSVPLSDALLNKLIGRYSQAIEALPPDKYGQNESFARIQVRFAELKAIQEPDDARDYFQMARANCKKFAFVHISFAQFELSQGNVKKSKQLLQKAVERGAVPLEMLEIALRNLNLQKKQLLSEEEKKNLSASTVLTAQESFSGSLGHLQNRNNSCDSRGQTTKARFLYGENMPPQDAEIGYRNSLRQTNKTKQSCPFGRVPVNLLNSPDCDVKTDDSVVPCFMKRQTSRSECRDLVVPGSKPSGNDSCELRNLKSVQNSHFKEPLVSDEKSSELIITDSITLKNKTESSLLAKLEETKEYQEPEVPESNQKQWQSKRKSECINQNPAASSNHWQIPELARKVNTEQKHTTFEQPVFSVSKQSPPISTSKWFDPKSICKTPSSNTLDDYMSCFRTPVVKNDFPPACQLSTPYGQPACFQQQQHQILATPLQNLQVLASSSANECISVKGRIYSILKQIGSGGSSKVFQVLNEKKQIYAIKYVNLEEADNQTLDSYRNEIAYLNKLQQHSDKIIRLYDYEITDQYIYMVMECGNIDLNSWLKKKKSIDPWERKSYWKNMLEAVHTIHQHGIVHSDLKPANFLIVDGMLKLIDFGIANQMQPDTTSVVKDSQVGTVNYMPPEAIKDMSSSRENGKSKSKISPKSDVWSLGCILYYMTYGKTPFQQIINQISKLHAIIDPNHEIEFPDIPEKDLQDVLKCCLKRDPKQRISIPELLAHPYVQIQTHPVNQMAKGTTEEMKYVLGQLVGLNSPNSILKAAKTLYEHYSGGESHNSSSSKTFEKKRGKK
Kind of series: Inhibition of TTK (unknown origin).

The test system of the next series is MDA-MB-468. Kind of series: Antiproliferative activity against human MDA-MB-468 cells. It counts as functional.
Series [4] in a line: Half life in rat microsomes. The class given is ADME, Microsome.
Series [5] can be described thus: Half life in mouse microsomes. The class given is ADME, Microsome.
The test system of the next series is HT-29. Kind of series: Antiproliferative activity against human HT-29 cells. The class given is functional.
A further series has as its target Cytochrome P450 3A4 (Homo sapiens, UniProt P08684). Kind of series: Inhibition of CYP3A4 (unknown origin). The class given is ADME.
Series [6] is described as follows: Half life in human microsomes. The class given is ADME, Microsome.
Series [7] in a line: Antiproliferative activity against human PA1 cells. It counts as functional. The note with it: PA-1.
The target of series [8] is Rho-associated protein kinase 2 (Homo sapiens) (UniProt O75116). Kind of series: Inhibition of recombinant human N-terminal His6-tagged ROCK2 (11 to 552 residues) expressed in baculovirus infected Sf21 cells at 1 uM by radiometric assay relative to control.
Series [9] in a line: AUC in mouse at 10 mg/kg, po. The class given is ADME, organism-based. The note with it: in vivo.
Series [10] is described as follows: Cmax in mouse at 10 mg/kg, po. It counts as ADME, organism-based. More on the design: dose 10 mg/kg, route oral. The conditions noted are these: in vivo.
Substrate in series [11]: Cc1cc(-c2cnn3c(NCC4CCOCC4)nc(Oc4ccccc4)nc23)ccc1C(=O)NC1CC1
Description: Inhibition of TTK (unknown origin) assessed as substrate Km(app) at 1.5 nM by double reciprocal plot analysis (Rvb = 8.4 uM)
The note with it: Homo sapiens.

Substrate in series [12]: Cc1cc(-c2cnn3c(NCC4CCOCC4)nc(Oc4ccccc4)nc23)ccc1C(=O)NC1CC1
Description: Inhibition of TTK (unknown origin) assessed as substrate Km(app) at 7.5 nM by double reciprocal plot analysis (Rvb = 8.4 uM)
The conditions noted are these: Homo sapiens. This is another data set of the same source.

Substrate in series [13]: Cc1cc(-c2cnn3c(NCC4CCOCC4)nc(Oc4ccccc4)nc23)ccc1C(=O)NC1CC1
Description: Inhibition of TTK (unknown origin) assessed as substrate Km(app) at 4.5 nM by double reciprocal plot analysis (Rvb = 8.4 uM)
The note with it: Homo sapiens. This is another data set of the same source.

Chain of Cytochrome P450 3A4 (P08684 whole entry): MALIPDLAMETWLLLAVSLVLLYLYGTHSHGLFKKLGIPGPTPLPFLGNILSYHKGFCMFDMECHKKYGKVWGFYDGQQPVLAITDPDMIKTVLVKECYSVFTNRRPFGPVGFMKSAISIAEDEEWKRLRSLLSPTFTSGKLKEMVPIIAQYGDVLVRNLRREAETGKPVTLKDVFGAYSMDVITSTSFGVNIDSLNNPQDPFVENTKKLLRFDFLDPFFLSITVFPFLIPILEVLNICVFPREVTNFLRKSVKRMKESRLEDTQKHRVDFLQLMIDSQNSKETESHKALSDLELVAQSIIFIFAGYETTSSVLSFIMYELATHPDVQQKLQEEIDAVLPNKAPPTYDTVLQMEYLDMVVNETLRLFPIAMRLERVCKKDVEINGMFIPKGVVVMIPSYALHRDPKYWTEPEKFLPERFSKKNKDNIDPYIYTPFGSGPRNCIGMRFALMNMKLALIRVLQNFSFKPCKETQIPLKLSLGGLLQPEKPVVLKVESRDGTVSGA
Chain of Rho-associated protein kinase 2 (Homo sapiens) (O75116 whole entry, looked up, the tested form may be a part): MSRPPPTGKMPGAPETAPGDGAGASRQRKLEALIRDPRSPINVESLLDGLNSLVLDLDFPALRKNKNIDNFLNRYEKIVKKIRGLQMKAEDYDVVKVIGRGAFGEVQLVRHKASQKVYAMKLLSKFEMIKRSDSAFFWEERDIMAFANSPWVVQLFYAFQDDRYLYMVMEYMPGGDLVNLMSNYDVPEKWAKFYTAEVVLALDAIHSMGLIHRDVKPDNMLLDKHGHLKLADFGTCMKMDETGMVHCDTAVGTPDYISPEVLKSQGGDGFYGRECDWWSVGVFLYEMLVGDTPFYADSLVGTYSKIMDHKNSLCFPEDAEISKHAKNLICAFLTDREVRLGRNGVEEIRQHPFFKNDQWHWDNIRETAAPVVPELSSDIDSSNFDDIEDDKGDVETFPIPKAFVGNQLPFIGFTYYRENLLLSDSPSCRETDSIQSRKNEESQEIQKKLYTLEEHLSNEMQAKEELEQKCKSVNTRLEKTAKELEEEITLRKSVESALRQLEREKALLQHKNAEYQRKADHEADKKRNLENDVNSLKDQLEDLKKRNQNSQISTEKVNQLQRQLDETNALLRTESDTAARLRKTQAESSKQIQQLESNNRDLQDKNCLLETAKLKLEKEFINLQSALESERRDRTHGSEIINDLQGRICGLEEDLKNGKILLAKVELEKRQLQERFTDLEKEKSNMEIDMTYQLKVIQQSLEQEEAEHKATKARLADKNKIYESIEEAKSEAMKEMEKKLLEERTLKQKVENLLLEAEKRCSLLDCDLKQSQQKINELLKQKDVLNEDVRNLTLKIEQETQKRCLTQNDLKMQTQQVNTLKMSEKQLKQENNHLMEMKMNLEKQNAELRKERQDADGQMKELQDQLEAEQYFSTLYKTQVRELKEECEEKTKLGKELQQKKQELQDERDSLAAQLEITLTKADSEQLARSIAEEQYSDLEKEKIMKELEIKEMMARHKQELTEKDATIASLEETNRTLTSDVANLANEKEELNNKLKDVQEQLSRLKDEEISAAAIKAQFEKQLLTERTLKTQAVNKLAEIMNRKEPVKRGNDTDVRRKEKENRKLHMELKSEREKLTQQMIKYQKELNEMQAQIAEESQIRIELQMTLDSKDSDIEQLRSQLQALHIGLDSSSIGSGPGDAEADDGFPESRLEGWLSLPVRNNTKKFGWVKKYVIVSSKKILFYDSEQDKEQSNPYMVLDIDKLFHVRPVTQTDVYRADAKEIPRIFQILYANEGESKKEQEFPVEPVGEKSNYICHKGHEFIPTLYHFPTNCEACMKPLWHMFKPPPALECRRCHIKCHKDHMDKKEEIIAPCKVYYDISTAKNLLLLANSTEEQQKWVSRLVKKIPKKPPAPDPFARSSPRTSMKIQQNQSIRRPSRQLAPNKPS

A word on the GI50: it is the concentration that inhibits growth by half. Read a low GI50 as greater sensitivity of the cells. By IC50 is commonly meant the concentration that gives 50% inhibition. Higher therefore signals lower potency. For the molecule `O=C(NC1CC1)c1ccc(-c2cnn3c(NCC4CCOCC4)nc(NC4CCCC4)nc23)cc1F`, the values for the GI50 (with MDA-MB-231; in series [1]; in [2]) were 1400 nM, 1700 nM and 850 nM, respectively. Also, it took 7 nM to reach half-maximal inhibition in series [3] (IC50).

Regarding `Cc1cc(-c2cnn3c(NCC4CCOCC4)nc(Nc4ccccc4)nc23)ccc1C(=O)NC1CC1`, the GI50 in the series with MDA-MB-231 was 1200 nM; in series [1] it was 1700 nM; in [2] it was 690 nM. This molecule displayed a half-inhibitory concentration (IC50) in series [3] of 11 nM.

Regarding `O=C(NC1CC1)c1ccc(-c2cnn3c(NCC4CCOCC4)nc(NC4CCCC4)nc23)cc1`, the GI50 in the series with MDA-MB-231 is 690 nM; in series [1] it was 1700 nM; in series [2], 390 nM. The IC50 in series [3] was 10 nM.

Consider `CC(C)C(=O)Nc1ccc(-c2cnn3c(NCC4CCOCC4)nc(OC4CCCC4)nc23)cc1`, for which, in series [3], half-maximal inhibition (IC50) was put at 1700 nM.

On to `O=C(NC1CC1)c1ccc(-c2cnn3c(NCC4CCOCC4)nc(Oc4ccccc4)nc23)cc1Cl`, for which the concentration for 50% growth inhibition (GI50) was found to be 230 nM in the series on MDA-MB-231, 400 nM in [1] and 160 nM in series [2]. For the same molecule, the IC50 in [3] amounted to 1.7 nM.

With `CC(=O)Nc1cccc(Oc2nc(NCC3CCOCC3)n3ncc(-c4ccc(C(=O)NC5CC5)c(C)c4)c3n2)c1`, the GI50 in the series with MDA-MB-231 came out at 1600 nM; in series [1] it was 1200 nM; in series [2], 1300 nM. In series [3], this molecule showed an IC50 of 8.4 nM.

`O=C(NC1CC1)c1ccc(-c2cnn3c(NCC4CCOCC4)nc(Oc4ccccc4)nc23)cc1`: the values for the GI50 (in the series on MDA-MB-231; in series [1]; in [2]) were 350 nM, 910 nM and 200 nM, respectively. For the same molecule, half-maximal inhibition in series [3] (IC50) was put at 4.9 nM.

For the molecule `Cc1cc(-c2cnn3c(NCC4CCOCC4)nc(OC4CCCC4)nc23)ccc1C(=O)NC1CC1`, the 50% growth inhibitory concentration (GI50) with MDA-MB-231 was 230 nM; in [1] it was 590 nM; in [2], 160 nM. The molecule further came in with an IC50 in [3] of 2.3 nM.

A word on the half-life: it is the time needed for the level to fall by half in the phase considered. A lower half-life goes with fast loss. Consider `Cc1cc(-c2cnn3c(NCC4CCOCC4)nc(NC4CCCC4)nc23)ccc1C(=O)NC1CC1`, for which the GI50 with MDA-MB-468 turned out to be 320 nM; in the series on HT-29, 84 nM; in the series on MDA-MB-231, 170 nM; in series [1], 480 nM; in [2], 130 nM; in series [7], 53 nM. The half-life was 11 min in series [4], 14 min in [5] and more than 60 min in [6]. Further, at Cytochrome P450 3A4, the IC50 is 19000 nM.

`CC(C)NC(=O)c1ccc(-c2cnn3c(NCC4CCOCC4)nc(OC4CCCC4)nc23)cc1` returned an IC50 in series [3] of 230 nM.

Turning to `O=C(NC1CC1)c1ccc(-c2cnn3c(NCCN4CCOCC4)nc(Oc4ccccc4)nc23)cc1`, the GI50 in the series with MDA-MB-231 amounted to 960 nM; in series [1] it was 410 nM; in series [2] it was 880 nM. The molecule also showed an IC50 in series [3] of 24 nM.

In series [3], `CN(c1nc(NCC2CCOCC2)n2ncc(-c3ccc(C(=O)NC4CC4)c(F)c3)c2n1)C1CCCCC1` returned an IC50 of 15 nM.

One may read the inhibition as the change of the read-out against control, counted positive when it falls. Regarding `O=C(N[C@@H](c1ccccn1)C1CC1)c1ccc2[nH]nc(-c3ccc(N4C5CCC4CC(O)C5)cc3)c2c1` (stereo not given in full), in series [8], the inhibition was determined as 50%.

The term AUC denotes concentration integrated over time. Low values mean less exposure, high ones more exposure. Broadly, the Cmax is the maximum level reached in the sampled fluid or tissue. As to `Cc1cc(-c2cnn3c(NCC4CCOCC4)nc(Oc4cccc(F)c4F)nc23)ccc1C(=O)NC1CC1`, the half-life was 40 min in series [4], 28 min in [5] and more than 60 min in series [6]. The AUC in [9] turned out to be 4000 ng·h/mL. Moreover, the GI50 came to 12 nM in the series with MDA-MB-231, 37 nM in series [1] and 9 nM in [2]. For the same molecule, the IC50 against Cytochrome P450 3A4 was more than 20000 nM; in series [3] it was 0.4 nM. The Cmax in series [10] was 1600 ng/mL.

`COCCNc1nc(Oc2ccccc2)nc2c(-c3ccc(C(=O)NC4CC4)cc3)cnn12` had an IC50 in series [3] of 14 nM.

`Cc1cc(-c2cnn3c(NCC4CCOCC4)nc(NC4CCCC4)nc23)ccc1NC(=O)C1CC1`: the midpoint of inhibition in series [3], the IC50, lay at 2000 nM.

As for `Cc1cc(-c2cnn3c(NCC4CCOCC4)nc(NC4CCCCC4)nc23)ccc1C(=O)NC1CC1`, the GI50 with MDA-MB-231 was found to be 270 nM; in series [1], 470 nM; in [2], 170 nM. Moreover, the IC50 in series [3] was determined as 2.6 nM.

Take `O=C(NC1CC1)c1ccc(-c2cnn3c(NCC4CCOCC4)nc(N4CCOCC4)nc23)cc1Cl`: the GI50 was determined as 450 nM with MDA-MB-231, 70 nM in [1] and 440 nM in [2]. For the same molecule, in series [3], the IC50 worked out at 32 nM.

As to `Cc1cc(-c2cnn3c(NCCN4CCOCC4)nc(Oc4cccc(F)c4F)nc23)ccc1C(=O)NC1CC1`, the GI50 with MDA-MB-468 amounted to 150 nM; in the series with HT-29 it was 21 nM; in the series with MDA-MB-231, 40 nM; in series [1], 170 nM; in series [2] it was 14 nM; in series [7], 17 nM. This molecule displayed an IC50 in series [3] of 2.2 nM.

Regarding `Cc1cc(-c2cnn3c(NCC4CCOCC4)nc(NC4CCOCC4)nc23)ccc1C(=O)NC1CC1`, the GI50 with MDA-MB-231 stood at 540 nM; in series [1], 780 nM; in [2] it was 280 nM. In series [3], this molecule returned an IC50 of 9 nM.

B1: Dual specificity protein kinase TTK (Homo sapiens), P33981 (protein)
chain: T1 sequence (P33981 whole entry)
A word on the Km: it is the concentration of substrate that gives half-maximal velocity. B1: the Km in [11] was 17.4 µM; in series [12], 63.4 µM; in series [13], 39 µM.

Values taken from ChEMBL document CHEMBL3817791, “Discovery of 4-(4-aminopyrazolo[1,5-a][1,3,5]triazin-8-yl)benzamides as novel, highly potent and selective, orally bioavailable inhibitors of Tyrosine Threonine Kinase, TTK” (Bioorg Med Chem Lett, 2016).
